# US8932617B2, “Methods for treating or preventing restenosis and other vascular proliferative disorders” (priority 2004, dated 2015)
# Where “and” joins values, the source holds several entries; their conditions need not be identical. Identical values can stand only once. Entries after “also recorded” stand apart in the source; their conditions may differ. Like-named read-outs stand apart in the source and are kept apart here. Marks after values point to notes of the source that are not given here.
# Assays:
# SMC dATP pools = assay: Intracellular dNTP quantitation (dATP pools) by HPLC; type: cell-based, rat; conditions: 24 hours; for dATP levels: control 303; for maximal reduction in dATP content: Didox 0-200 μM, Imidate 0-200 μM, HU 0-1000 μM
# Protocol: SMC were plated in T150 flasks and treated with Didox (0-200 μM), Imidate (0-200 μM) or HU (0-1000 μM) and incubated for 24 hours. Following the 24 hour incubation period, the cells were trypsinized and collected in 50 mL centrifuge tubes along with the incubation media. All the extraction steps were performed on ice. Immediately before processing, cells were counted and viability determined using the trypan blue exclusion method. The cells were then centrifuged 5 minutes at 800×g. The cell pellet was then deproteinized with the same volume of 6% TCA, vortexed for 20 s and incubated on ice for 10 minutes. The acid cell extracts were centrifuged 10 min at 2000×g. The supernatants were then supplemented with an equal volume of distilled water, vortexed for 60 s and neutralized by the addition of 5M K2CO3 prior to HPLC analysis. dNTP detection was carried out using an ESA (Chelmsford, Mass.) HPLC chromatographic system with UV-Vis detection. Chromatographic separations were performed using a TosoHaas C18 reverse phase column (ODS 80Tm 250×4.6 mm, 5 μm pore). The mobile phase was delivered at a rate of 1.0 mL/min during the analysis using the following stepwise gradient elution program: A-B (80-20) at 0 min; (40-60) at 30 min; (40-60) at 40 min and (80-20) at 45 min. Buffer A contained 10 mM tetrabutylammonium sulfate, 10 mM KH2PO4 and 0.25% MeOH, and adjusted to pH 6.9. Buffer B consisted of 5.6 mM tetrabutylammonium sulfate, 50 mM KH2PO4 and 30% MeOH, and neutralized to pH 7.0. The injection volume for analysis was 50 μL. Detection was carried out at 254 nm.
# In order to further validate that the observed anti-proliferative properties afforded by these compounds was through inhibition of ribonucleotide reductase activity, the effects of these compounds on intracellular dATP pools were measured.
# [1] = system: Rat vascular smooth muscle cells; assay: SMC proliferation, cell count by flow cytometry; type: cell-based; conditions: 24 hours incubation, cells counted by flow cytometry, read-out: IC50 on inhibition of smooth muscle cell growth
# Protocol: SMC were plated on 6 well dishes at a density of 2×10^5 cells per well. Cells were then treated with Didox (0-200 μM), Imidate (0-200 μM) or HU (0-1000 μM) and incubated for 24 hours. Following the 24 hour incubation period, the cells were trypsinized and collected in 15 mL centrifuge tubes. The cells were then centrifuged 5 minutes at 800×g. The supernatant was discarded and the pellet was resuspended in 5 ml PBS. The cells were centrifuged 6 minutes at 200×g. The supernatant was removed and the pellet was then thoroughly resuspended in 0.5 ml PBS. The cell suspension was transferred into tubes containing 70% ethanol, keeping the cells in fixative for greater than about 2 hours. The ethanol suspended cells were centrifuged 5 minutes at 200×g, and the ethanol was decanted. The cell pellet was resuspended in 5 ml PBS and after one minute was centrifuged 5 min at 200×g. The top layer of liquid was again removed and the cell pellet was resuspended in 1 ml PI/Triton X-100 staining solution with RNAse A. This staining solution was then incubated at room temperature for 30 minutes. Flow cytometry was then performed using a FACS Calibur (Becton Dickenson). The data are presented as the mean.
# Didox, Imidate, and to a much lesser degree, HU, are known to be ribonucleotide reductase inhibitors (Elford, (1968) Biochem Biophys Res Commun 33:129-135; Elford et al., (1970) J Biol Chem 245:5228-5233; Elford et al., (1979) Cancer Res 39:844-851). ribonucleotide reductase catalyzes the reductive conversion of ribonucleotides to deoxynucleotides. This reductive reaction is a prime target for impeding cellular proliferation, and therefore amenable to inhibiting VSMC replication, because it is a rate limiting step in the biochemical pathway leading to DNA synthesis (Elford et al., (1970) J Biol Chem 245:5228-5233; Elford et al., (1979) Cancer Res 39:844-851; Takeda and Weber, (1981) Life Sci 28:1007-1014; Natsumeda et al., (1985) Cancer Res 45:2556-2559). […] Therefore, the IC50 of each compound on inhibition of smooth muscle cell growth was determined. […]
# rat vascular SMC = assay: Smooth muscle cell migration, wound scrape assay with PDGF; type: cell-based; conditions: for SMC migratory rate: 100 μM, PDGF 10 ng/mL, 24 hour period, control 15.8
# Protocol: A wound scrape assay was performed using rat vascular SMC. The cells were grown to confluence on 60 mm dishes. The cells were then made quiescent by incubating them in media containing 0.1% serum for 24 hrs followed by treatment with Didox, Imidate (0-100 μM), or HU (0-1000 μM) in media containing 0.1% serum and platelet derived growth factor (PDGF) at concentration of 10 ng/mL. Linear wounds were made by scraping each plate with the tip of a 20 μL pipette. The ability of cells to migrate across the wound area was measured using digital microscopy. SPOT advanced software (Diagnostic Instruments, Inc., Sterling Heights, Mich.) was used to measure the wound immediately, 2, 4, 12 and 24 hrs following injury. The data are presented as rate of migration and represent the mean±SD.
# SMC migration is also a component of neointimal proliferation. Therefore, additional studies were performed in order to determine the effects of these compounds on SMC migration. Using a wound scrape assay, SMC migration studies were carried out in the presence of Didox, Imidate, and HU. VSMC's were cultured to confluence on 60 mm dishes. The cells were made quiescent by incubating in media containing 0.1% serum. Following 24 hours of serum deprivation, Didox, Imidate, and HU were added to the wells (10-1000 μM) in the presence of PDGF (10 ng/mL) and a linear wound was made across the plate. SMC migration across the wound was monitored by digital microscopy over a 24 hour period. […] In contrast, HU (100 μM) had little effect on SMC migration, resulting in a migratory rate of […] (FIG. 4). […] This would be expected to contribute to the vascular protective effects afforded by these drugs.
# [2] = system: rat carotid artery, balloon mediated injury (restenosis); assay: Rat balloon carotid injury (Example 2), morphometric analysis at 2 and 6 weeks; type: in vivo; conditions: for decrease in neointimal area / decrease in intima/media ratio: 200 mg kg^-1 d^-1 i.p. for 7 days
# Text: Male Wistar rats, weighing 400-450 g (Harlan) were fed standard pellet feed and given water ad libitum. The experimental protocol was designed in accordance with Institutional ILACUC standards. Animals were anesthetized with Isoflurane (1.5-2%) in air. The right carotid artery was exposed and a 2F Fogarty balloon embolectomy catheter (Baxter) was inserted via an external carotid arteriotomy incision. The catheter was advanced to the common carotid artery, inflated to a pressure of 2 atm and rotated in a forward and retrograde direction. The catheter was then deflated and the process repeated three times. Treatment cohorts were divided into 5 groups (n=6-8/group): Control (sham operated), Didox (200 mg-kg^−1 d^−1), Imidate (200 mg kg^−1)HU (200 mg kg^−1 d^−1) and vehicle (saline). Drugs were administered daily by i.p. injection for a period of 7 days after injury. At 2 weeks post-injury, rats were euthanized by pentobarbital overdose and perfused with 10% buffered formalin Carotid arteries were removed and placed in the same fixative. Tissues were then embedded in paraffin, and 4 to 5 sections (4 μm) were cut at multiple levels. These sections were then stained with hematoxylin-eosin or elastic-van Gieson stain. Sections were examined microscopically and the cross-sectional areas of the lumen, neointima (from the internal elastic lamina to the lumen), and media were determined using digital microscopy with Spot Advanced software. The intima-to-media (I/M) ratio was then calculated from the determined mean. The data represent the mean±SD.
# The effects of Didox, Imidate, and Hydroxyurea (HU) on the vascular remodeling process following arterial injury were determined using a rat model of balloon mediated carotid injury. Each compound (200 mg kg^−1 d^−1) was delivered via i.p. injection for a period of 7 days post injury. These dosages are based on previously published reports and represent ½ the maximum tolerated dose of Hydroyurea in rats (Gupta and Yaffe, (1982) Pediatr Pharmacol (New York) 2:85-91; Vaughan et al., (1989) Cancer Chemother Pharmacol 23:26-30).
# At 14 days post injury the animals were sacrificed and morphometric analysis was carried out in order to asses the histopathological changes in the vessel wall (FIG. 1). […] HU afforded similar vascular protective effects to those observed with Didox and Imidate, resulting in a 55% decrease in neointimal area and a 63% decrease in intima/media ratio (FIG. 2). […] However, because the remodeling process occurs over a prolonged period of time, additional studies were performed in order to determine whether the vascular protective effects observed would be mitigated over time.
# To further investigate long-term efficacy of the one week dosing regimen, the duration of the study period was increased to 6 weeks. […] The beneficial effect of ribonucleotide reductase inhibition persisted over the long term. Each compound (200 mg kg^−1 d^−1) was given i.p. for a period of 7 days followed by a 5 week recovery period. […] Similarly, Imidate offered a 61% reduction in neointimal area and a 62% reduction in intima/media ratio (FIG. 3).
# [3] = system: rat carotid artery, balloon mediated injury (restenosis); assay: Rat model of balloon mediated carotid artery injury (Example 1), morphometric analysis; type: in vivo; conditions: two weeks post injury; intraperitoneal injection; vs untreated injured artery
# Protocol: To determine the ability of the ribonucleotide reductase inhibitors to affect restenosis, a rat model of balloon mediated carotid artery injury was utilized. Percutaneous transluminal carotid angioplasty (PTCA) was performed using a 2F Fogarty Embolectomy Catheter, which was inserted through the right, external carotid artery and inflated (2 atm) and deflated four times inside the right common carotid artery and rotated to cause endothelial injury. Immediately following the carotid injury, the rats received ribonucleotide reductase inhibitors, Didox (N,3,4-trihydroxybenzamide) Imidate (ethyl-3,4,5-trihydroxybenzenecarboximidate.HCl), or Hydroxyurea via intraperitoneal injection. The degree of restenosis was assessed using morphometric analysis at two weeks post injury.
# [4] = 6 weeks post injury, 5 week recovery
SMILES,dATP levels (SMC dATP pools; 5 μM) [Pmoles/10^7 cells],dATP levels (SMC dATP pools; 10 μM) [Pmoles/10^7 cells],dATP levels (SMC dATP pools; 50 μM),dATP levels (SMC dATP pools; 100 μM),dATP levels (SMC dATP pools; 200 μM),maximal reduction in dATP content (SMC dATP pools) [%],IC50 [1] [µM],SMC migratory rate (rat vascular SMC) [µm/h],"decrease in neointimal area [2, 4] [%]",decrease in intima/media ratio ([2]; 14 days post injury),decrease in neointimal area ([2]; 14 days post injury) [%],dATP levels (SMC dATP pools; 500 μM) [Pmoles/10^7 cells],dATP levels (SMC dATP pools; 1000 μM) [Pmoles/10^7 cells],IC50 ([1]; Rattus norvegicus) [µM],"effect on SMC migration (rat vascular SMC; HU concentrations up to 1 mM, listed as HU)","Lumen, % change as compared to injured vessel (increase in lumen area) [3]","Neointima, % change as compared to injured vessel (decrease in neointimal formation) [3]","Neointima/Media, % change as compared to injured vessel (reduction in intima/media ratio) [3]","Wall Thickness, % change as compared to injured vessel (reduction) [3]",change in medial area ([2]; one week of systemic administration after balloon injury)
"O=C(NO)c1ccc(O)c(O)c1 [Didox, N-3,4-trihydroxybenzamide]",297,260,203* Pmoles/10^7 cells,140* Pmoles/10^7 cells,126* Pmoles/10^7 cells,58,67,1.7,64,61% and 60%,62,–,–,–,–,–,–,–,–,–
"NC(=O)NO [Hydroxyurea, reference compound]",320,–,–,266 Pmoles/10^7 cells,–,69,–,15.1,71,63%,55,93,92,266,No further inhibition; also recorded: no effect on SMC migration,↑22 ± 5%,↓ 91 ± 6%,↓ 93 ± 7%,↓ 54 ± 9%,–
"CCOC(=N)c1cc(O)c(O)c(O)c1.Cl [Imidate, ethyl-3,4,5-trihydroxybenzenecarboximidate-HCl]",293,311,210 Pmoles/10^7 cells,184* Pmoles/10^7 cells,173* Pmoles/10^7 cells,42,–,0.9,61,55% and 60%,57,–,–,82,–,↑19 ± 5%,↓ 65 ± 7%,↓ 69 ± 8%,↓ 41 ± 7%,small but statistically significant decrease in medial area
